Test results taken from patent publication US20210214405A1, “PEPTIDE, METHOD AND COMPOSITION FOR MELANIN POLYMERIZATION AND HAIR DARKENING” (Renorigin Innovation Institute Co., Ltd., priority 2020, published 2021).

Experiment: The polymerization of melanin (melanin pellet, absorbance at 400 nm; light microscope)
Format: biochemical
Conditions: 0.025 mg/ml melanin treated with 50 μM peptide for 24 h
Procedure: 0.025 mg/ml melanin was treated with 50 μM peptide for 24 h. Data are represented as the means±SD from three independent experiments. ***p<0.001.
0.025 mg/ml melanin were treated with 50 μM peptides for 24 h, and then centrifuged at 10,000 g for 5 min. The supernatant was removed from the tube, leaving only the melanin pellet. The polymerization of melanin was quantified after boiling in 1 M NaOH for 1 hour and the absorbance was measured spectrophotometrically at 400 nm.
In the case of APRKNVRWCTISQ [SEQ ID NO: 2], the melanin polymerization is reported as “did not show effects on melanin polymerization”. For CTISQPEWFKCRR [SEQ ID NO: 3], the melanin polymerization was “did not show effects on melanin polymerization”. With RMKKLGAPSI [SEQ ID NO: 15] the melanin polymerization was “did not show effects on melanin polymerization”.
